From publication PMC12276038, “Impact of Chelation on Reactivity and Cytotoxicity of Hemilabile Biphenyl Gold(III) N‐Heterocyclic Carbene Complexes” (Chemmedchem, 2025)

Legend:
[1] = molecules of known Log(k′w) used for calibration; cited from earlier work
HeLa cells [2] = assay: Resazurin cell proliferation assay on HeLa cells; assay type: cell-based, human; settings: 72 h incubation
Description: All new 16 BGC compounds were screened against HeLa cells (cervical adenocarcinoma) to assess their antiproliferative activity through a resazurin cell viability assay.^[ [49] ^] The dose‐response curves were then fitted by a 4‐parameter sigmoid function to extract the median effective concentrations (EC50) shown in Figure 7 .
(§1) HeLa and MDA‐MB‐231 cells were cultivated in DMEM GlutaMax High Glucose supplemented with 10 vol% fetal bovine serum (FBS) and 1 vol% penicillin/streptomycin (50 U/mL and 50 μg/mL respectively). Huh‐7 cells were cultivated in MEM supplemented with 10 vol% FBS, GlutaMax (2 mM), sodium pyruvate (1 mM), nonessential amino acids mix (0.1 mM), and 1 vol% penicillin/streptomycin. MCF10A cells were cultivated in DMEM:F12 GlutaMax supplemented with 1 vol% penicillin/streptomycin, hEGF (20 ng/mL), hydrocortisone ([…]), cholera toxin (100 ng/mL), insulin (10 μg/mL), and 5 vol% horse serum. These media will be further referred as “Complete media.”
(§2) Stock solutions of the gold complexes (20 mM) were prepared in DMSO and kept at −20 °C. Serial dilutions were performed to obtain a set of 8 concentrations with a 2‐fold geometric progression, and were stored at −20 °C as well.
Cell proliferation assays were performed using resazurin as a viability indicator. Cells were seeded in 96‐well plates (2000 cells/100 μL per well) in the appropriate complete medium and allowed to grow for 24 h. Cells were then treated in triplicate with 8 different concentrations of the complexes, which were added as 100 μL of 2x dilution in culture medium containing no FBS (or containing 5% horse serum for MCF‐10 A cells), thus leading to a 5% concentration of serum in each well. After 72 h incubation, 110 μL of supernatant was removed from each well, and 10 μL of 500 μM resazurin solution (10x) in PBS were added prior to incubating the cells for 2 h. The fluorescence intensity of the reduction product resorufin was measured in each well (540 nm excitation, 590 nm reading), and cellular viability was computed as the fluorescence ratio between sample and DMSO control wells after blank subtraction. The EC50 value was computed by fitting the data with a 4‐parameter sigmoid σ through nonlinear least square regression, where the EC50 value is directly the c parameter. The regression was performed using curve_fit() function scipy.optimize module in python (scripts available^[ [60] ^]). σ(x,a,b,c,d)=d+a−d/1+(x/c)^b

Huh‐7 = assay: Resazurin cell proliferation assay on Huh-7 cells; assay type: cell-based, human; settings: Huh‐7, 72 h incubation
Description: (§3) Considering the equivalent activities for neutral and cationic analogs, only cationic representatives of the BGC12, BGC18, and BGC19 couples were further screened on two other human cancer cell lines including hepatic carcinoma Huh‐7 and “triple negative” breast adenocarcinoma MDA‐MB‐231 and noncancerous epithelial breast cells MCF‐10 A (Table 1 ).
as §1, §2
(§4) Cell proliferation assays were performed using resazurin as a viability indicator. Cells were seeded in 96‐well plates (2000 cells/100 μL per well) in the appropriate complete medium and allowed to grow for 24 h. Cells were then treated in triplicate with 8 different concentrations of the complexes, which were added as 100 μL of 2x dilution in culture medium containing no FBS (or containing 5% horse serum for MCF‐10 A cells), thus leading to a 5% concentration of serum in each well. […] The fluorescence intensity of the reduction product resorufin was measured in each well (540 nm excitation, 590 nm reading), and cellular viability was computed as the fluorescence ratio between sample and DMSO control wells after blank subtraction. […]

MDA‐MB‐231 = assay: Resazurin cell proliferation assay on MDA-MB-231 cells; assay type: cell-based, human; settings: MDA‐MB‐231, 72 h incubation
Description: as §3, §1, §2, §4

MCF‐10 A = assay: Resazurin cell proliferation assay on noncancerous MCF-10A cells; assay type: cell-based, human; settings: MCF‐10 A noncancerous cells, 72 h incubation
Description: as §3, §1, §2, §4

[3] = Solvolysis / stability in DMSO-d6 and DMSO-d6/D2O by 1H NMR; assay type: physicochemical; settings: 24 h incubation at 37 °C in DMSO
Experimental: Solvolysis Kinetics: 400 μL of freshly prepared gold complex solution in DMSO‐d6 (5 mM) was transferred to an NMR tube. Spectra were acquired straight away (t0 reference) prior to transferring the tubes to an oven set at 37 °C for 72 h. Spectra were then acquired periodically during incubation. The same procedure was repeated with addition of 100 μL of D2O to each tube.
Solvolysis: A concentrated solution of gold complex (≈40 mM) was prepared in 1 mL DMSO‐d6 mixed with 250 μL of D2O and incubated at 37 °C for 24 h. The solution was then extracted 5 times with 3 mL DCM. The DCM phase was recovered and evaporated thoroughly, and the resulting residue was dissolved in MeCN‐d3 and analyzed by ^1H NMR.

[4] = Reaction with chloride ions by 1H NMR; assay type: physicochemical; settings: 1 eq. chloride source, DMSO‐d6/D2O 4/1
Experimental: Reaction with Chloride Ions: 400 μL of freshly prepared gold complex solution in DMSO‐d6 (5 mM) was added to an NMR tube, followed by 4 μL of 0.5 M NaCl in D2O and 96 μL of D2O. Spectra were acquired straight away (t0 reference) prior to transferring the tubes to an oven set at 37 °C for 72 h. Spectra were then acquired periodically during incubation.

[5] = Speciation in DMSO-d6/serum-free DMEM by 1H NMR; assay type: physicochemical; settings: 3/1 DMSO‐d6/serum‐free DMEM, immediately after mixing (t < 5 min)
Experimental: Speciation in DMEM: NMR spectra were recorded on a Bruker Avance II 300 spectrometer (7 T) operating at a ^1H Larmor frequency of 300.13 MHz with a 5 mm observe broadband probe (QNP) z‐axis (^31P/^19 F/^13C/^1H) at 27 °C.
Solutions of the gold complexes (10 mM) were freshly prepared in DMSO‐d6. Samples were prepared by mixing 200 μL of complex solution with 100 μL (resp. 67 μL) of pure DMSO‐d6 and 100 μL (resp. 133 μL) of DMEM GlutaMax High glucose without FBS. ^1H NMR spectra were acquired immediately after mixing (t < 5 min) using a standard zg30 sequence to determine the resonant frequency of water in the tube. Further spectra were acquired using a cpmg‐esgp1d sequence (pulse program available^[ [60] ^]) which carrier frequency (O1P) was tuned to the water peak maximum to ensure optimal water suppression. The Hahn echo time (D20) was left null to acquire a spectrum without the use of T2‐gating. A particular attention was paid to the shimming process as poor shims result in a broader water signal thus leading to an inefficient water suppression.

[6] = Log P determination by reverse-phase HPLC (OECD method); settings: 25% water in acetonitrile (condition B)
[7] = tested on: mitochondrial membrane potential of HeLa cells; assay: Mitochondrial membrane polarization JC-10 endpoint assay; assay type: cell-based, human; settings: 10 μM, 1 h or 4 h
Experimental: Several gold complexes were previously reported to accumulate in mitochondria^[ [50], [51] ^] or even to disrupt their membrane potential.^[ [27], [52], [53] ^] We therefore investigated the possible antimitochondrial activity of BGC19b, chosen as a representative of the most toxic compounds. Briefly, we incubated HeLa cells with BGC19b (1 h or 4 h) or CCCP (4 h) as positive control and monitored the mitochondrial membrane potential through a JC‐10 endpoint assay.
HeLa cells were seeded in a 96‐well plate (2000 cells in 100 μL complete medium per well) and left to adhere. Cells were then treated in triplicate with gold complexes (addition of 100 μL of 2x complex solution in FBS‐free medium) 4 h and 1 h before reading the plate. A control triplicate was treated with CCCP (10 μM) and incubated for 4 h before reading. One hour before reading, 100 μL of supernatant was withdrawn from each well and replaced with JC‐10 in assay buffer A solution (Abcam, 1x, 50 μL). Cells were incubated with the marker for 1 h, and assay buffer B (50 μL) was added. Mitochondrial membrane potential was assessed by computing the ratio of fluorescence intensities between aggregated (λ ex = 540 nm, λ fluo = 590 nm) and nonaggregated JC‐10 (λ ex = 490 nm, λ fluo = 525 nm). […]

HeLa cells [8] = assay: Resazurin viability run in parallel to the JC-10 assay; assay type: cell-based, human; settings: 10 μM, 1 h and 4 h
[9] = tested on: effector caspases 3 and 7 in HeLa cells; assay: Caspase 3/7 activity and cellular morphology by time lapse videomicroscopy; assay type: cell-based, human; settings: for Rate of apoptosis induction (caspase activation kinetics): BGC19b 1.7 μM, CCCP 10 μM
Experimental: Apoptosis is a possible outcome of energy shortage in cells following mitochondrial depolarization. We thus monitored the activity of the effector caspases 3 and 7, as a readout of cell apoptosis. The overall cellular morphology was analyzed in parallel.
HeLa cells were seeded in an 8‐well Ibidi slide (4000 cells in 500 μL complete medium per well) and allowed to grow for 24 h. The culture medium was changed to a fresh one (DMEM 5% FBS, 200 μL) containing SiR‐DNA dye (Spirochrome, 1 μM) and CellEvent Caspase 3/7 Green marker (ThermoFisher, 1 μM). […] Cells were monitored for 24 h (20 min step between images) by phase contrast and fluorescence microscopy (Cy5 and EGFP filters for SiR‐DNA and CellEvent Caspase 3/7 markers, respectively). Images were processed using Fiji, and cellular viabilities were extracted as Viability=1−NEGFP/NCy5 where N i denotes the number of cells counted in channel i. Cells were counted in EGFP and Cy5 channels using TrackMate (DoG detector + Simple LAP tracker).^[ [62] ^] The cellular morphology was also manually monitored using the phase contrast channel by tagging cells losing adhesion and displaying blebs.^[ [60] ^]

[10] = design: method as in PMID 29277693; settings: read-out: EC50 of CCCP; cited from earlier work

COc1ccccc1 [Anisole]
log(k’w) of log P standard mix [1]: 2.1

C[n+]1ccn2[c]1[Au-]1([c]3cc(C(C)(C)C)ccc3-c3ccc(C(C)(C)C)c[c]31)[n+]1ccccc1C2.F[P-](F)(F)(F)(F)F [BGC12b]
EC50 (HeLa cells [2]): 1800 ± 100 nM
EC50 (Huh‐7): 1800 ± 100 nM
EC50 (MDA‐MB‐231): 2900 ± 100 nM
EC50 (MCF‐10 A): 1200 ± 300 nM
Spectra in MeCN‐d3 after incubation in DMSO and extraction in DCM [3]: unchanged
Conversion of cationic to neutral form on addition of chloride [4]: converted back quantitatively and instantaneously
Species identified in culture medium mixture [5]: only the neutral complexes were identified
Log P (cationic b, form) [6]: 3.9

Cc1cccc2[n+]1[Au-]1([c]3cc(C(C)(C)C)ccc3-c3ccc(C(C)(C)C)c[c]31)[c]1n(cc[n+]1C)C2.F[P-](F)(F)(F)(F)F [BGC13b]
Log P (cationic b, form) [6]: 4.4

Cc1cc[n+]2c(c1)Cn1cc[n+](C)[c]1[Au-]21[c]2cc(C(C)(C)C)ccc2-c2ccc(C(C)(C)C)c[c]21.F[P-](F)(F)(F)(F)F [BGC14b]
Log P (cationic b, form) [6]: 4.8

COc1cc[n+]2c(c1)Cn1cc[n+](C)[c]1[Au-]21[c]2cc(C(C)(C)C)ccc2-c2ccc(C(C)(C)C)c[c]21.F[P-](F)(F)(F)(F)F [BGC15b]
Conversion of cationic to neutral form on addition of chloride [4]: converted back quantitatively and instantaneously
Log P (cationic b, form) [6]: 4.2

C[n+]1ccn2[c]1[Au-]1([c]3cc(C(C)(C)C)ccc3-c3ccc(C(C)(C)C)c[c]31)[n+]1c(ccc3ccccc31)C2.F[P-](F)(F)(F)(F)F [BGC16b]
EC50 (HeLa cells [2]): 3200 ± 300 nM
Log P (cationic b, form) [6]: 4.5

C[n+]1ccn2[c]1[Au-]1([c]3cc(C(C)(C)C)ccc3-c3ccc(C(C)(C)C)c[c]31)[n+]1ccncc1C2.F[P-](F)(F)(F)(F)F [BGC17b]
Log P (cationic b, form) [6]: 3.5

C[n+]1[c]2n(c3ccccc31)Cc1cccc[n+]1[Au-]21[c]2cc(C(C)(C)C)ccc2-c2ccc(C(C)(C)C)c[c]21.F[P-](F)(F)(F)(F)F [BGC18b]
EC50 (HeLa cells [2]): 2800 ± 700 nM
EC50 (Huh‐7): 2500 ± 400 nM
EC50 (MDA‐MB‐231): 4400 ± 800 nM
EC50 (MCF‐10 A): 2800 ± 500 nM
Log P (cationic b, form) [6]: 4.5

CC(C)(C)c1ccc2[c](c1)[Au-]1([c]3cc(C(C)(C)C)ccc3-2)[c]2n3ccccc3c[n+]2Cc2cccc[n+]21.F[P-](F)(F)(F)(F)F [BGC19b]
EC50 (HeLa cells [2]): 1800 ± 600 nM
EC50 (Huh‐7): 1400 ± 100 nM
EC50 (MDA‐MB‐231): 2000 ± 100 nM
EC50 (MCF‐10 A): 1600 ± 400 nM
Conversion of cationic to neutral form on addition of chloride [4]: converted back quantitatively and instantaneously
Species identified in culture medium mixture [5]: only the neutral complexes were identified
Mitochondrial membrane depolarization [7]: significant mitochondrial membrane depolarization
Change in cell viability during JC-10 assay (HeLa cells [8]): no significant change in cell viability
Induction period before adhesion loss, blebs and caspase 3/7 activation ([9]; 1.7 μM): around 4 h
Rate of apoptosis induction (caspase activation kinetics) [9]: induces apoptosis much faster than CCCP
Log P (cationic b, form) [6]: 4.3

N#CC(C#N)=NNc1cccc(Cl)c1 [CCCP, reference compound]
Rate of apoptosis induction (caspase activation kinetics) [9]: occurred at a much slower rate compared to BGC19b
EC50 [10]: 10000 nM

c1ccc2ccccc2c1 [Naphtalene]
log(k’w) of log P standard mix [1]: 3.6

CCCCCCCCc1ccccc1 [Octylbenzene]
log(k’w) of log P standard mix [1]: 6.3
